Laboratory results as given in ChEMBL document CHEMBL1127439, “Structure-activity relationship studies of central nervous system agents. 13. 4-[3-(Benzotriazol-1-yl)propyl]-1-(2-methoxyphenyl)piperazine, a new putative 5-HT1A receptor antagonist, and its analogs” (J Med Chem, 1994).

How the values were obtained:
[1] = molecular target: Serotonin 2 (5-HT2) receptor (Rattus norvegicus, UniProt P30994+P08909+P14842); experiment: Tested in vitro for receptor binding affinity against 5-hydroxytryptamine 2 receptor using radioligand [3H]ketanserin; assay type: protein assay
Rattus norvegicus [2] = species: Rattus norvegicus; experiment: Selectivity is the ratio between Ki values of 5-HT2 and 5-HT1A
[3] = molecular target: T1, 5-hydroxytryptamine receptor 1A (Rattus norvegicus, UniProt P19327); experiment: Tested in vitro for receptor binding affinity against 5-hydroxytryptamine 1A receptor using radioligand [3H]8-OH-DPAT
T1 sequence (P19327 whole entry): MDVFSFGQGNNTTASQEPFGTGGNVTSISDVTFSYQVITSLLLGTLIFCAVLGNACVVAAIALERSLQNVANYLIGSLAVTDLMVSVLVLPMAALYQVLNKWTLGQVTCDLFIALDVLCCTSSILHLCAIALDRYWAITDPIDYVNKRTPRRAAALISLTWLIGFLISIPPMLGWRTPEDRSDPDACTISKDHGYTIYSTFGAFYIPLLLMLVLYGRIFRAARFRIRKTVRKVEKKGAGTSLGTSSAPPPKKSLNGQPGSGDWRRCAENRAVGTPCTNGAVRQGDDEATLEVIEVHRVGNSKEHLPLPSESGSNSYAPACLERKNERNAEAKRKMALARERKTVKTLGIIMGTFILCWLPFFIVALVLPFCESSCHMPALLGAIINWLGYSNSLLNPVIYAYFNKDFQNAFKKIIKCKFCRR

Rattus norvegicus [4] = experiment: Tested for the effect on 8-OH-DPAT-induced behavior in reserpine pretreated rat against forepaw treading at dosage of 4 mg/kg; assay type: functional
Mus musculus [5] = experiment: Effect on 8-OH-DPAT-induced hypothermia in mice (5 mg/kg) at intraperitoneal dosage of 16 mg/kg of compound after 15 mins; assay type: functional
Mus musculus [6] = experiment: Effect on body temperature in mice at intraperitoneal dosage of 16 mg/kg, (compound administered 30 min before the test) after 60 min; assay type: functional
Mus musculus [7] = experiment: Effect on 8-OH-DPAT-induced hypothermia in mice (5 mg/kg) at intraperitoneal dosage of 16 mg/kg of compound after 45 mins; assay type: functional
Rattus norvegicus [8] = experiment: Tested for the effect on 8-OH-DPAT-induced behavior in reserpine pretreated rat against flat body posture at dosage of 16 mg/kg; assay type: functional
Rattus norvegicus [9] = experiment: Tested for the effect on 8-OH-DPAT-induced behavior in reserpine pretreated rat against forepaw treading at dosage of 8 mg/kg; assay type: functional
Rattus norvegicus [10] = experiment: Tested for the effect on 8-OH-DPAT-induced lower lip retraction (LLR) in rat at dosage of 2 mg/kg; assay type: functional
Mus musculus [11] = experiment: Effect on 8-OH-DPAT-induced hypothermia in mice (5 mg/kg) at intraperitoneal dosage of 16 mg/kg of compound after 60 mins; assay type: functional
Mus musculus [12] = experiment: Effect on 8-OH-DPAT-induced hypothermia in mice (5 mg/kg) at intraperitoneal dosage of 8 mg/kg of compound after 45 mins; assay type: functional
Mus musculus [13] = experiment: Effect on body temperature in mice at intraperitoneal dosage of 8 mg/kg, (compound administered 30 min before the test) after 30 min; assay type: functional
Rattus norvegicus [14] = experiment: Tested for the induction of lower lip retraction (LLR) by the investigated compounds in rat at dosage of 2 mg/kg; assay type: functional
Rattus norvegicus [15] = experiment: Tested for the effect on 8-OH-DPAT-induced behavior in reserpine pretreated rat against forepaw treading at dosage of 16 mg/kg; assay type: functional
Rattus norvegicus [16] = experiment: Tested for the induction of lower lip retraction (LLR) by the investigated compounds in rat at dosage of 16 mg/kg; assay type: functional
Rattus norvegicus [17] = experiment: Tested for the effect on 8-OH-DPAT-induced behavior in reserpine pretreated rat against flat body posture at dosage of 8 mg/kg; assay type: functional
Rattus norvegicus [18] = experiment: Tested for the effect on 8-OH-DPAT-induced lower lip retraction (LLR) in rat at dosage of 16 mg/kg; assay type: functional
Mus musculus [19] = experiment: Effect on body temperature in mice at intraperitoneal dosage of 4 mg/kg, (compound administered 30 min before the test) after 60 min; assay type: functional
Mus musculus [20] = experiment: Effect on 8-OH-DPAT-induced hypothermia in mice (5 mg/kg) at intraperitoneal dosage of 8 mg/kg of compound after 15 mins; assay type: functional
Rattus norvegicus [21] = experiment: Tested for the effect on 8-OH-DPAT-induced lower lip retraction (LLR) in rat at dosage of 8 mg/kg; assay type: functional
Mus musculus [22] = experiment: Effect on 8-OH-DPAT-induced hypothermia in mice (5 mg/kg) at intraperitoneal dosage of 4 mg/kg of compound after 30 mins; assay type: functional
Mus musculus [23] = experiment: Effect on 8-OH-DPAT-induced hypothermia in mice (5 mg/kg) at intraperitoneal dosage of 16 mg/kg of compound after 30 mins; assay type: functional
Mus musculus [24] = experiment: Effect on 8-OH-DPAT-induced hypothermia in mice (5 mg/kg) at intraperitoneal dosage of 4 mg/kg of compound after 60 mins; assay type: functional
Mus musculus [25] = experiment: Effect on 8-OH-DPAT-induced hypothermia in mice (5 mg/kg) at intraperitoneal dosage of 4 mg/kg of compound after 45 mins; assay type: functional
Mus musculus [26] = experiment: Effect on body temperature in mice at intraperitoneal dosage of 8 mg/kg, (compound administered 30 min before the test) after 90 min; assay type: functional
Mus musculus [27] = experiment: Effect on body temperature in mice at intraperitoneal dosage of 16 mg/kg, (compound administered 30 min before the test) after 30 min; assay type: functional
Mus musculus [28] = experiment: Effect on body temperature in mice at intraperitoneal dosage of 8 mg/kg, (compound administered 30 min before the test) after 45 min; assay type: functional
Mus musculus [29] = experiment: Effect on 8-OH-DPAT-induced hypothermia in mice (5 mg/kg) at intraperitoneal dosage of 4 mg/kg of compound after 15 mins; assay type: functional
Mus musculus [30] = experiment: Effect on 8-OH-DPAT-induced hypothermia in mice (5 mg/kg) at intraperitoneal dosage of 8 mg/kg of compound after 30 mins; assay type: functional
Mus musculus [31] = experiment: Effect on 8-OH-DPAT-induced hypothermia in mice (5 mg/kg) at intraperitoneal dosage of 8 mg/kg of compound after 60 mins; assay type: functional
Rattus norvegicus [32] = experiment: Tested for the effect on 8-OH-DPAT-induced behavior in reserpine pretreated rat against flat body posture at dosage of 4 mg/kg; assay type: functional
Mus musculus [33] = experiment: Effect on body temperature in mice at intraperitoneal dosage of 4 mg/kg, (compound administered 30 min before the test) after 75 min; assay type: functional
Rattus norvegicus [34] = experiment: Tested for the effect on 8-OH-DPAT-induced lower lip retraction (LLR) in rat at dosage of 4 mg/kg; assay type: functional
Mus musculus [35] = experiment: Effect on body temperature in mice at intraperitoneal dosage of 16 mg/kg, (compound administered 30 min before the test) after 75 min; assay type: functional
Mus musculus [36] = experiment: effect on body temperature in mice at intraperitoneal dosage of 16 mg/kg, (compound administered 30 min before the test) after 45 min; assay type: functional
Mus musculus [37] = experiment: Effect on body temperature in mice at intraperitoneal dosage of 4 mg/kg, (compound administered 30 min before the test) after 90 min; assay type: functional
Mus musculus [38] = experiment: Effect on body temperature in mice at intraperitoneal dosage of 16 mg/kg, (compound administered 30 min before the test) after 90 min; assay type: functional
Mus musculus [39] = experiment: Effect on body temperature in mice at intraperitoneal dosage of 4 mg/kg, (compound administered 30 min before the test) after 30 min; assay type: functional
Mus musculus [40] = experiment: Effect on body temperature in mice at intraperitoneal dosage of 8 mg/kg, (compound administered 30 min before the test) after 60 min; assay type: functional
Rattus norvegicus [41] = experiment: Tested for the induction of lower lip retraction (LLR) by the investigated compounds in rat at dosage of 4 mg/kg; assay type: functional
Mus musculus [42] = experiment: Effect on body temperature in mice at intraperitoneal dosage of 4 mg/kg, (compound administered 30 min before the test) after 45 min; assay type: functional
Rattus norvegicus [43] = experiment: Tested for the induction of lower lip retraction (LLR) by the investigated compounds in rat at dosage of 8 mg/kg; assay type: functional
Mus musculus [44] = experiment: Effect on body temperature in mice at intraperitoneal dosage of 8 mg/kg, (compound administered 30 min before the test) after 75 min; assay type: functional
Rattus norvegicus [45] = experiment: Tested for the induction of lower lip retraction (LLR) by the investigated compounds in rat at dosage of 10 mg/kg; assay type: functional
Mus musculus [46] = experiment: Effect on 8-OH-DPAT-induced hypothermia in mice (5 mg/kg) at intraperitoneal dosage of 10 mg/kg of compound after 15 mins; assay type: functional
Mus musculus [47] = experiment: Effect on 8-OH-DPAT-induced hypothermia in mice (5 mg/kg) at intraperitoneal dosage of 10 mg/kg of compound after 30 mins; assay type: functional
Rattus norvegicus [48] = experiment: Tested for the effect on 8-OH-DPAT-induced behavior in reserpine pretreated rat against flat body posture at dosage of 10 mg/kg; assay type: functional
Mus musculus [49] = experiment: Effect on 8-OH-DPAT-induced hypothermia in mice (5 mg/kg) at intraperitoneal dosage of 10 mg/kg of compound after 45 mins.; assay type: functional
Rattus norvegicus [50] = experiment: Tested for the effect on 8-OH-DPAT-induced behavior in reserpine pretreated rat against forepaw treading at dosage of 10 mg/kg; assay type: functional
Rattus norvegicus [51] = experiment: Tested for the effect on 8-OH-DPAT-induced lower lip retraction (LLR) in rat at dosage of 10 mg/kg; assay type: functional
Mus musculus [52] = experiment: Effect on 8-OH-DPAT-induced hypothermia in mice (5 mg/kg) at intraperitoneal dosage of 10 mg/kg of compound after 60 mins; assay type: functional
Mus musculus [53] = experiment: Effect on body temperature in mice at intraperitoneal dosage of 10 mg/kg, (compound administered 30 min before the test) after 60 min; assay type: functional
Mus musculus [54] = experiment: Effect on body temperature in mice at intraperitoneal dosage of 10 mg/kg, (compound administered 30 min before the test) after 30 min; assay type: functional
Mus musculus [55] = experiment: Effect on body temperature in mice at intraperitoneal dosage of 10 mg/kg, (compound administered 30 min before the test) after 45 min; assay type: functional

Structure (SMILES): CCCN1CCN(c2ccccc2OC)CC1
- Ki [1]: 3290 nM
- Selectivity (Rattus norvegicus [2]): 13

Structure (SMILES): COc1ccccc1N1CCN(CCn2nc3ccccc3n2)CC1
- Ki [1]: 1760 nM
- Selectivity (Rattus norvegicus [2]): 43
- Ki [3]: 41 nM

Structure (SMILES): CCN1CCN(c2ccccc2OC)CC1
- Ki [1]: 3120 nM
- Selectivity (Rattus norvegicus [2]): 15
- Ki [3]: 203 nM

Structure (SMILES): COc1ccccc1N1CCN(CCn2nnc3ccccc32)CC1
- Ki [1]: 1620 nM
- Selectivity (Rattus norvegicus [2]): 39
- Ki [3]: 42 nM

Structure (SMILES): COc1ccccc1N1CCN(CCCn2nc3ccccc3n2)CC1
- Behavioral score (Rattus norvegicus [4]): 8
- Delta t (Mus musculus [5]): 2.6 °C
- Ki [1]: 1580 nM
- Delta t (Mus musculus [6]): 0.3 °C
- Delta t (Mus musculus [7]): 1.3 °C
- Behavioral score (Rattus norvegicus [8]): 12.4
- Behavioral score (Rattus norvegicus [9]): 4.8
- LLR score (Rattus norvegicus [10]): 2.3
- Delta t (Mus musculus [11]): 0.9 °C
- Delta t (Mus musculus [12]): 0.9 °C
- Delta t (Mus musculus [13]): 0.1 °C
- LLR score (Rattus norvegicus [14]): 0.2
- Behavioral score (Rattus norvegicus [15]): 4
- Selectivity (Rattus norvegicus [2]): 66
- LLR score (Rattus norvegicus [16]): 0.3
- Behavioral score (Rattus norvegicus [17]): 11.8
- LLR score (Rattus norvegicus [18]): 2.2
- Delta t (Mus musculus [19]): 0.1 °C
- Delta t (Mus musculus [20]): 2 °C
- LLR score (Rattus norvegicus [21]): 1.8
- Delta t (Mus musculus [22]): 1.4 °C
- Delta t (Mus musculus [23]): 2 °C
- Delta t (Mus musculus [24]): 0.6 °C
- Delta t (Mus musculus [25]): 0.9 °C
- Delta t (Mus musculus [26]): 0.3 °C
- Delta t (Mus musculus [27]): 0.2 °C
- Delta t (Mus musculus [28]): 0.2 °C
- Delta t (Mus musculus [29]): 1.8 °C
- Delta t (Mus musculus [30]): 1.5 °C
- Delta t (Mus musculus [31]): 0.7 °C
- Behavioral score (Rattus norvegicus [32]): 13.8
- Delta t (Mus musculus [33]): 0.2 °C
- Ki [3]: 24 nM
- LLR score (Rattus norvegicus [34]): 1.8
- Delta t (Mus musculus [35]): 0.4 °C
- Delta t (Mus musculus [36]): 0.3 °C
- Delta t (Mus musculus [37]): 0.1 °C
- Delta t (Mus musculus [38]): 0.2 °C
- Delta t (Mus musculus [39]): 0.1 °C
- Delta t (Mus musculus [40]): 0.4 °C
- LLR score (Rattus norvegicus [41]): 0.2
- Delta t (Mus musculus [42]): 0.3 °C
- LLR score (Rattus norvegicus [43]): 0.4
- Delta t (Mus musculus [44]): 0.3 °C

Structure (SMILES): COc1ccccc1N1CCN(C[C@@H](C(=O)NC(C)(C)C)c2ccccc2)CC1
- LLR score (Rattus norvegicus [45]): 0.1
- Delta t (Mus musculus [46]): 0.2 °C
- Delta t (Mus musculus [47]): 0 °C
- Behavioral score (Rattus norvegicus [48]): 9.7
- Delta t (Mus musculus [49]): 0.3 °C
- Behavioral score (Rattus norvegicus [50]): 1
- LLR score (Rattus norvegicus [51]): 0.8
- Delta t (Mus musculus [52]): 0.1 °C
- Delta t (Mus musculus [53]): 0.2 °C
- Delta t (Mus musculus [54]): 0.2 °C
- Delta t (Mus musculus [55]): 0.2 °C

Structure (SMILES): CCCCN1CCN(c2ccccc2OC)CC1
- Ki [1]: 2280 nM
- Selectivity (Rattus norvegicus [2]): 40
- Ki [3]: 57 nM
